Assay results published in PubChem BioAssay AID248 (DTP/NCI, 2004).
“And” between values parts separate entries of the source, which are not always exact repeats. Equal values may be shown once. Toxic doses and inconclusive results are not listed. Rule as the data show it: active = T/C of 150% or more; inactive = T/C below 125%.

Tested on: L1210 leukemia ip in BDF1 mice, survival T/C
Assay: NCI In Vivo Anticancer Drug Screen. Data for tumor model L1210 Leukemia (intraperitoneal) in B6D2F1 (BDF1) mice
Conditions: endpoint: mean survival time, higher = longer survival
Method in brief: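 Survival endpoint. Drug-treated group vs vehicle group, expressed as T divided by C. Tumor passaged by transplantation.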

[1] = dose: 100.0 mg/kg/injection, schedule: Q04DX002 (ip), vehicle: Klucel (hydroxypropylcellulose) (HPC)
[2] = dose: 200.0 mg/kg/injection, schedule: Q04DX002 (ip), vehicle: Klucel (hydroxypropylcellulose) (HPC)
[3] = dose: 400.0 mg/kg/injection, schedule: Q04DX002 (ip), vehicle: Klucel (hydroxypropylcellulose) (HPC)
[4] = dose: 100.0 mg/kg/injection, schedule: Q04DX003 (ip), vehicle: saline with Tween-80
[5] = dose: 200.0 mg/kg/injection, schedule: Q04DX003 (ip), vehicle: saline with Tween-80
[6] = dose: 400.0 mg/kg/injection, schedule: Q04DX003 (ip), vehicle: saline with Tween-80
[7] = dose: 100.0 mg/kg/injection, schedule: Q01DX001 (ip), vehicle: carboxymethylcellulose (CMC)
[8] = dose: 200.0 mg/kg/injection, schedule: Q01DX001 (ip), vehicle: carboxymethylcellulose (CMC)
[9] = dose: 400.0 mg/kg/injection, schedule: Q01DX001 (ip), vehicle: carboxymethylcellulose (CMC)
[10] = dose: 100.0 mg/kg/injection, schedule: Q01DX009 (ip), vehicle: saline with Tween-80
[11] = dose: 200.0 mg/kg/injection, schedule: Q01DX009 (ip), vehicle: saline with Tween-80
[12] = dose: 25.0 mg/kg/injection, schedule: Q04DX003 (ip), vehicle: saline
[13] = dose: 50.0 mg/kg/injection, schedule: Q04DX003 (ip), vehicle: saline
[14] = dose: 100.0 mg/kg/injection, schedule: Q04DX003 (ip), vehicle: saline
[15] = dose: 100.0 mg/kg/injection, schedule: Q01DX009 (ip), vehicle: Klucel (hydroxypropylcellulose) (HPC)

Measured: T/C

CCc1ccccc1NC(=O)Nc1cccc2ccccc12
inactive: dose: 100.0 mg/kg/injection, schedule: Q01DX009 (ip), vehicle: gum acacia 98 % of control | dose: 100.0 mg/kg/injection, schedule: Q04DX003 (ip), vehicle: gum acacia 96 % of control | dose: 200.0 mg/kg/injection, schedule: Q01DX009 (ip), vehicle: gum acacia 95 % of control | dose: 200.0 mg/kg/injection, schedule: Q04DX003 (ip), vehicle: gum acacia 96 % of control | dose: 400.0 mg/kg/injection, schedule: Q01DX009 (ip), vehicle: gum acacia 88 % of control | dose: 400.0 mg/kg/injection, schedule: Q04DX003 (ip), vehicle: gum acacia 93 % of control

CCCCCC(Oc1ccc(Cl)cc1C)C(=O)OCC (configuration not stated)
inactive: [1] 90 % of control | [2] 87 % of control | [3] 107 % of control

NC(N)=N/N=C(\c1ccc(F)cc1)C1CC1
inactive: dose: 15.0 mg/kg/injection, schedule: Q01DX Z (ip), vehicle: methylcellulose (MC) 94 % of control | dose: 15.0 mg/kg/injection, schedule: Q01DX Z (oral), vehicle: methylcellulose (MC) 110 % of control | dose: 30.0 mg/kg/injection, schedule: Q01DX Z (ip), vehicle: methylcellulose (MC) 95 % of control | dose: 30.0 mg/kg/injection, schedule: Q01DX Z (oral), vehicle: methylcellulose (MC) 105 % of control | dose: 60.0 mg/kg/injection, schedule: Q01DX Z (oral), vehicle: methylcellulose (MC) 96 % of control | dose: 120.0 mg/kg/injection, schedule: Q01DX Z (oral), vehicle: methylcellulose (MC) 104 % of control

Cc1ccccc1OCC(O)COC(N)=O (configuration not stated)
inactive: dose: 0.62 mg/kg/injection, schedule: Q04DX003 (ip), vehicle: saline 100 % of control | dose: 1.25 mg/kg/injection, schedule: Q04DX003 (ip), vehicle: saline 100 % of control | dose: 2.5 mg/kg/injection, schedule: Q04DX003 (ip), vehicle: saline 112 % of control | dose: 5.0 mg/kg/injection, schedule: Q04DX003 (ip), vehicle: saline 98 % of control | dose: 10.0 mg/kg/injection, schedule: Q04DX003 (ip), vehicle: saline 98 % of control

NC(=O)N/N=C/C(c1ccccc1)c1ccccc1
inactive: [4] 96 % of control | [5] 94 % of control | [6] 103 % of control

COC1=C(NCc2ccco2)C(=O)C(OC)=C(NCc2ccco2)C1=O
inactive: dose: 50.0 mg/kg/injection, schedule: Q01DX001 (ip), vehicle: carboxymethylcellulose (CMC) 96 % of control | [7] 91 % of control | [8] 86 % of control | [9] 96 % of control

CC(C)=CCC/C(C)=C/COC(=O)C(CC=C(C)C)CCN1CCN(CC=C(C)C)CC1 (configuration not stated)
inactive: [10] 98 % of control | [1] 88 % of control | [11] 92 % of control | [2] 92 % of control | [3] 98 % of control

CCNCCCN
inactive: dose: 25.0 mg/kg/injection, schedule: Q01DX009 (ip), vehicle: saline 97 % of control | [12] 115 % of control | dose: 50.0 mg/kg/injection, schedule: Q01DX009 (ip), vehicle: saline 101 % of control | [13] 115 % of control | dose: 100.0 mg/kg/injection, schedule: Q01DX009 (ip), vehicle: saline 103 % of control | [14] 93 % of control and 103 % of control

CCc1ccc(N=Nc2ccc(Br)cc2)cc1
inactive: [7] 93 % of control | [8] 98 % of control | [9] 98 % of control

O=C(O)c1ccc(/C=N/NC(=O)C(O)(c2ccccc2)c2ccccc2)cc1
inactive: [7] 108 % of control | [8] 108 % of control | [9] 108 % of control

CCN(CC)CCNc1ncnc2[nH]ncc12
inactive: [12] 89 % of control | [13] 86 % of control | [14] 103 % of control and 89 % of control

COC(=O)C1C2CC(C3OC23)C1C(=O)OC (configuration not stated)
inactive: dose: 100.0 mg/kg/injection, schedule: Q01DX009 (ip), vehicle: other 110 % of control | dose: 200.0 mg/kg/injection, schedule: Q01DX009 (ip), vehicle: other 108 % of control | dose: 400.0 mg/kg/injection, schedule: Q01DX009 (ip), vehicle: other 93 % of control

Cc1ccccc1NC=O
inactive: [10] 101 % of control | [4] 87 % of control | [11] 101 % of control | [5] 91 % of control | [6] 100 % of control

C[N+]1(CCO)CC[N+](C)(CCCN2c3ccccc3Sc3ccc(Cl)cc32)CC1 (configuration not stated)
inactive: dose: 10.0 mg/kg/injection, schedule: Q01DX001 (ip), vehicle: carboxymethylcellulose (CMC) 98 % of control | dose: 20.0 mg/kg/injection, schedule: Q01DX001 (ip), vehicle: carboxymethylcellulose (CMC) 101 % of control | dose: 40.0 mg/kg/injection, schedule: Q01DX001 (ip), vehicle: carboxymethylcellulose (CMC) 113 % of control

O=C(Oc1c(-c2ccccc2)[nH]c2ccccc12)c1ccc([N+](=O)[O-])cc1
inactive: [1] 104 % of control | [2] 101 % of control | [3] 90 % of control

NC(N)=NCCCC(NC(=O)OCc1ccccc1)C(=O)Nc1ccc2ccccc2c1 (configuration not stated)
inactive: [15] 102 % of control | dose: 200.0 mg/kg/injection, schedule: Q01DX009 (ip), vehicle: Klucel (hydroxypropylcellulose) (HPC) 103 % of control

NN=C1c2ccccc2C(F)(F)c2ccccc21
inactive: dose: 50.0 mg/kg/injection, schedule: Q01DX001 (ip), vehicle: Klucel (hydroxypropylcellulose) (HPC) 95 % of control | dose: 100.0 mg/kg/injection, schedule: Q01DX001 (ip), vehicle: Klucel (hydroxypropylcellulose) (HPC) 95 % of control

Cc1ccc([N+](=O)[O-])cc1NC(=O)Nc1ccccc1O
inactive: [15] 92 % of control | dose: 400.0 mg/kg/injection, schedule: Q01DX009 (ip), vehicle: Klucel (hydroxypropylcellulose) (HPC) 87 % of control

O=C(c1ccccc1)c1ccccc1O
inactive: dose: 50.0 mg/kg/injection, schedule: Q01DX001 (ip), vehicle: other 90 % of control | dose: 100.0 mg/kg/injection, schedule: Q01DX001 (ip), vehicle: other 93 % of control | dose: 200.0 mg/kg/injection, schedule: Q01DX001 (ip), vehicle: other 101 % of control | dose: 400.0 mg/kg/injection, schedule: Q01DX001 (ip), vehicle: other 95 % of control

NC1CCC(Cl)CC1 (configuration not stated)
inactive: dose: 100.0 mg/kg/injection, schedule: Q01DX001 (ip), vehicle: saline 95 % of control | [14] 99 % of control | dose: 200.0 mg/kg/injection, schedule: Q01DX001 (ip), vehicle: saline 106 % of control | dose: 200.0 mg/kg/injection, schedule: Q04DX003 (ip), vehicle: saline 99 % of control | dose: 400.0 mg/kg/injection, schedule: Q01DX001 (ip), vehicle: saline 92 % of control

O=C(Nc1ccc(Cl)cc1)SCCSC(=O)Nc1ccc(Cl)cc1
inactive: dose: 100.0 mg/kg/injection, schedule: Q04DX002 (ip), vehicle: other 97 % of control and 101 % of control | dose: 100.0 mg/kg/injection, schedule: Q04DX003 (ip), vehicle: other 98 % of control and 105 % of control | dose: 200.0 mg/kg/injection, schedule: Q04DX002 (ip), vehicle: other 93 % of control and 101 % of control | dose: 200.0 mg/kg/injection, schedule: Q04DX003 (ip), vehicle: other 94 % of control and 89 % of control | dose: 400.0 mg/kg/injection, schedule: Q04DX002 (ip), vehicle: other 95 % of control and 90 % of control | dose: 400.0 mg/kg/injection, schedule: Q04DX003 (ip), vehicle: other 95 % of control and 91 % of control
